Read-outs that look alike come from different tables or passages of the source.
Key:
Human CD73 = target: T1, Human CD73 (Homo sapiens, UniProt P21589); test: CD73 Enzyme Assay; assay type: biochemical
T1 construct: purchased R&D Systems; host or cells: CHO cells
T1 sequence (P21589 27-549): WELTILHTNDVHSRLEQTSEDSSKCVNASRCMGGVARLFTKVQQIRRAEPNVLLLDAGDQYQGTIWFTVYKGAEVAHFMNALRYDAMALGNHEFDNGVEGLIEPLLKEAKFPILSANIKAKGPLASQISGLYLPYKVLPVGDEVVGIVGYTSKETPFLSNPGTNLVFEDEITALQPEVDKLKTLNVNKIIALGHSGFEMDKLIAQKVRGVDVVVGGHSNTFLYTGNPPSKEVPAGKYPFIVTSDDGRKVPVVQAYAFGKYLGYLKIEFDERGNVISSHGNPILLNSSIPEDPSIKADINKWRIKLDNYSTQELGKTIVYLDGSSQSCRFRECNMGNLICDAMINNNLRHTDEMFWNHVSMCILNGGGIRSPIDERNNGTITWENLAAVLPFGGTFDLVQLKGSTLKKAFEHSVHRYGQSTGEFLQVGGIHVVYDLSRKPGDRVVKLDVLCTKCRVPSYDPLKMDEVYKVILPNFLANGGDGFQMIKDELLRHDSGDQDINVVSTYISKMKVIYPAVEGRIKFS

[1] = target: T2, CD73 on U138 human neuroglioma cells (Homo sapiens, UniProt P21589); test: CD73 Cell-Based Assay; conditions: U138 cells, AMP substrate, 2 hours at 37° C., inorganic phosphate by malachite green
T2 construct: U138 cells were obtained from ATCC and cultured in DMEM with 10% FBS; host or cells: U138 human neuroglioma cells
T2 sequence (P21589 27-549): T1 sequence (P21589 27-549)
Description: U138 human neuroglioma cells were used in these experiments. U138 cells were obtained from ATCC and cultured in DMEM with 10% FBS. 2500 cells were seeded into 96-well plate with 100 μL of media the day before the experiment. Cells were washed twice with 200 μL of assay buffer (20 mM HEPES, pH 7.4; 137 mM NaCl; 5.4 mM KCl; 1.3 mM CaCl2); 4.2 mM NaHCO3; 1 mg/mL glucose) to remove residual inorganic phosphate. After washing, 100 μL of buffer was added to each well, then 100 μL of a mixture of AMP substrate (200 μM) and diluted compound was added to each well. The cells were incubated at 37° C. (with 5% CO2) for 2 hours. 50 μL of supernatant was transferred to a 96-well assay plate and the concentration of inorganic phosphate was determined using malachite green reagent (R&D System; Cat: DY996).

[2] = 0.25 nM hCD73, 25 μM AMP, kinetic read at 360 nm, read-out: CD73 Enzyme Assay IC50

| IC50 (Human CD73; [2]) | SMILES | further results |
| --- | --- | --- |
| > 1000 nM | O=P(O)(O)COC[C@H]1O[C@@H](n2cnc3c(NCc4ccccc4)ncnc32)[C@H](O)[C@@H]1O [Compound 1, [(2R,3S,4R,5R)-5-[6-(benzylamino)purin-9-yl]-3,4-dihydroxy-tetrahydrofuran-2-yl]methoxymethyl-phosphonic acid] | IC50 [1]: > 1000 nM |
| > 1000 nM | CC(C)OP(=O)(O)COC[C@H]1O[C@@H](n2ccc3c(NC4CCCC4)nc(Cl)nc32)[C@H](O)[C@@H]1O [Compound 224, [(2R,3S,4R,5R)-5-[2-chloro-4-(cyclopentyl-amino)pyrrolo[2,3-d]-pyrimidin-7-yl]-3,4-dihydroxy-tetrahydro-furan-2-yl]methoxy-methyl-isopropoxy-phosphinic acid] | – |
| 10 to 100 nM | Cc1oc(=O)oc1COP(=O)(O)COC[C@H]1O[C@@H](n2ccc3c(NC4CCCC4)nc(Cl)nc32)[C@H](O)[C@@H]1O [Compound 225, [(2R,3S,4R,5R)-5-[2-chloro-4-(cyclopentyl-amino)pyrrolo[2,3-d]-pyrimidin-7-yl]-3,4-dihydroxy-tetrahydro-furan-2-yl]methoxy-methyl-[(5-methyl-2-oxo-1,3-dioxol-4-yl)-methoxy]phosphinic acid] | – |
| > 1000 nM | O=P(COC[C@H]1O[C@@H](n2ccc3c(NC4CCCC4)nc(Cl)nc32)[C@H](O)[C@@H]1O)(OCC(F)(F)F)OCC(F)(F)F [Compound 226, (2R,3S,4R,5R)-2-[bis(2,2,2-trifluoro-ethoxy)phosphoryl-methoxymethyl]-5-[2-chloro-4-(cyclopentyl-amino)pyrrolo[2,3-d]-pyrimidin-7-yl]tetra-hydrofuran-3,4-diol] | – |
| – | O=P(COC[C@H]1O[C@@H](n2ccc3c(NC4CCCC4)nc(Cl)nc32)[C@H](O)[C@@H]1O)(Oc1ccc(F)cc1)Oc1ccc(F)cc1 [Compound 227, (2R,3S,4R,5R)-2-[bis (4-fluorophenoxy)-phosphorylmethoxy-methyl]-5-[2-chloro-4-(cyclopentylamino)-pyrrolo[2,3-d]-pyrimidin-7-yl]tetra-hydrofuran-3,4-diol] | IC50 (Human CD73): > 1000 nM |
| – | O=P(O)(COC[C@H]1O[C@@H](n2ccc3c(NC4CCCC4)nc(Cl)nc32)[C@H](O)[C@@H]1O)Oc1ccc(F)cc1 [Compound 228, [(2R,3S,4R,5R)-5-[2-chloro-4-(cyclopentyl-amino)pyrrolo[2,3-d]-pyrimidin-7-yl]-3,4-dihydroxy-tetrahydro-furan-2-yl]methoxy-methyl-(4-fluoro-phenoxy)phosphinic acid] | IC50 (Human CD73): > 1000 nM |
| – | O=P(O)(COC[C@H]1O[C@@H](n2ccc3c(NC4CCCC4)nc(Cl)nc32)[C@H](O)[C@@H]1O)Oc1cccnc1 [Compound 233, [(2R,3S,4R,5R)-5-[2-chloro-4-(cyclopentyl-amino)pyrrolo[2,3-d]-pyrimidin-7-yl]-3,4-dihydroxy-tetrahydro-furan-2-yl]methoxy-methyl-(3-pyridyloxy)-phosphinic acid] | IC50 (Human CD73): < 10 nM |
| 100 to 1000 nM | CN(C)C(=O)COP(=O)(O)COC[C@H]1O[C@@H](n2ccc3c(NC4CCCC4)nc(Cl)nc32)[C@H](O)[C@@H]1O [Compound 234, [(2R,3S,4R,5R)-5-[2-chloro-4-(cyclopentyl-amino)pyrrolo[2,3-d]-pyrimidin-7-yl]-3,4-dihydroxy-tetrahydro-furan-2-yl]methoxy-methyl-[2-(dimethyl-amino)-2-oxo-ethoxy]-phosphinic acid] | – |
| 10 to 100 nM | O=C(OCOP(=O)(O)COC[C@H]1O[C@@H](n2ccc3c(NC4CCCC4)nc(Cl)nc32)[C@H](O)[C@@H]1O)N1CCOCC1 [Compound 237, [(2R,3S,4R,5R)-5-[2-chloro-4-(cyclopentyl-amino)pyrrolo[2,3-d]-pyrimidin-7-yl]-3,4-dihydroxy-tetrahydro-furan-2-yl]methoxy-methyl-(morpholine-4-carbonyloxy-methoxy)phosphinic acid] | – |
| 100 to 1000 nM | O=C(OCOP(=O)(COC[C@H]1O[C@@H](n2ccc3c(NC4CCCC4)nc(Cl)nc32)[C@H](O)[C@@H]1O)OCOC(=O)N1CCOCC1)N1CCOCC1 [Compound 238, [[(2R,3S,4R,5R)-5-[2-chloro-4-(cyclopentyl-amino)pyrrolo[2,3-d]-pyrimidin-7-yl]-3,4-dihydroxy-tetrahydro-furan-2-yl]methoxy-methyl-(morpholine-4-carbonyloxymeth-oxy)phosphoryl]oxy-methyl morpholine-4-carboxylate] | – |
| – | O=P(O)(O)COC[C@H]1O[C@@H](n2ccc3c(NC4CCCC4)nc(C(F)F)nc32)[C@H](O)[C@@H]1O [Compound 239, [(2R,3S,4R,5R)-5-[4-(cyclopentylamino)-2-(difluoromethyl)pyrrolo-[2,3-d]pyrimidin-7-yl]-3,4-dihydroxy-tetra-hydrofuran-2-yl]-methoxymethylphos-phonic acid] | IC50 [1]: 10 to 100 nM |
| 100 to 1000 nM | O=P(O)(O)COC[C@H]1O[C@@H](n2ccc3c(N[C@@H]4CCNC4)nc(Cl)nc32)[C@H](O)[C@@H]1O [Compound 241, [(2R,3S,4R,5R)-5-[2-chloro-4-[[(3R)-pyrrolidin-3-yl]amino]-pyrrolo[2,3-d]pyrimidin-7-yl]-3,4-dihydroxy-tetrahydrofuran-2-yl]-methoxymethylphos-phonic acid] | – |
| > 1000 nM | O=P(O)(O)COC[C@H]1O[C@@H](n2ccc3c(N[C@H]4CCNC4)nc(Cl)nc32)[C@H](O)[C@@H]1O [Compound 242, [(2R,3S,4R,5R)-5-[2-chloro-4-[[(3S)-pyrrolidin-3-yl]-amino]pyrrolo[2,3-d]-pyrimidin-7-yl]-3,4-dihydroxy-tetrahydro-furan-2-yl]methoxy-methylphosphonic acid] | – |
| 100 to 1000 nM | O=P(O)(O)COC[C@H]1O[C@@H](n2ccc3c(NC4CNC4)nc(Cl)nc32)[C@H](O)[C@@H]1O [Compound 245, [(2R,3S,4R,5R)-5-[4-(azetidin-3-ylamino)-2-chloro-pyrrolo[2,3-d]pyrimidin-7-yl]-3,4-dihydroxy-tetrahydro-furan-2-yl]methoxy-methylphosphonic acid] | – |
| > 1000 nM | CCCCCCCCCCCCCCCCOCCCOP(=O)(O)COC[C@H]1O[C@@H](n2ccc3c(NC4CCCC4)nc(Cl)nc32)[C@H](O)[C@@H]1O [Compound 246, [(2R,3S,4R,5R)-5-[2-chloro-4-(cyclopentyl-amino)pyrrolo[2,3-d]-pyrimidin-7-yl]-3,4-dihydroxy-tetrahydro-furan-2-yl]methoxy-methyl-(3-hexadecoxy-propoxy)phosphinic acid] | – |
| 100 to 1000 nM | CN(C)CCOc1nc(NC2CCCC2)c2ccn([C@@H]3O[C@H](COCP(=O)(O)O)[C@@H](O)[C@H]3O)c2n1 [Compound 259, [(2R,3S,4R,5R)-5-[4-(cyclopentylamino)-2-[2-(dimethylamino)-ethoxy]pyrrolo[2,3-d]-pyrimidin-7-yl]-3,4-dihydroxy-tetrahydro-furan-2-yl]methoxy-methylphosphonic acid] | – |
| 100 to 1000 nM | O=P(O)(O)COC[C@H]1O[C@@H](n2ccc3c(NC4CCCC4)nc(OCc4ccccn4)nc32)[C@H](O)[C@@H]1O [Compound 264, [(2R,3S,4R,5R)-5-[4-(cyclopentylamino)-2-(2-pyridylmethoxy)-pyrrolo[2,3-d]pyrimidin-7-yl]-3,4-dihydroxy-tetrahydrofuran-2-yl]-methoxymethylphos-phonic acid] | – |
| < 10 nM | O=P(O)(O)CP(=O)(O)OC[C@H]1O[C@@H](n2cnc3c(NC4CCCC4)nc(Cl)nc32)[C@H](O)[C@@H]1O [Compound 282, [[(2R,3S,4R,5R)-5-[2-chloro-6-(cyclopentyl-amino)purin-9-yl]-3,4-dihydroxy-tetrahydro-furan-2-yl]methoxy-hydroxy-phosphoryl]-methylphosphonic acid] | – |
| > 1000 nM | O=P(O)(O)COC[C@H]1O[C@@H](c2scc3c(N4CCCC4)nc(O)nc23)[C@H](O)[C@@H]1O [Compound 302] | – |
| – | Nc1ncnc2c1ncn2[C@@H]1O[C@H](COP(=O)(O)CP(=O)(O)O)[C@@H](O)[C@H]1O [adenosine 5′-(α,β-methylene)diphosphate, reference compound] | IC50 (Human CD73; read-out: IC50): 50 nM |

| SMILES | IC50 (Human CD73; [2]) | further results |
| --- | --- | --- |
| CC(C)(C)C(=O)COP(=O)(O)COC[C@H]1O[C@@H](n2ccc3c(NC4CCCC4)nc(Cl)nc32)[C@H](O)[C@@H]1O [Compound 223, [(2R,3S,4R,5R)-5-[2-chloro-4-(cyclopentyl-amino)pyrrolo[2,3-d]-pyrimidin-7-yl]-3,4-dihydroxy-tetrahydro-furan-2-yl]methoxy-methyl-(3,3-dimethyl-2-oxo-butoxy)phos-phinic acid] | > 1000 nM | – |

From patent US11591355B2 (Peloton Therapeutics, Inc., priority 2017, dated 2023)
